Structures are written as SMILES. pIC50: −log10 of the molar value.

By pIC50 is commonly meant the IC50 on a negative log10 scale, so that one unit is a factor of ten.

The target of assay [1] is T1, JNK3 kinase (Jnk-3alpha-2) (Homo sapiens, UniProt P53779).
T1 construct: Jnk-3alpha-2 (as a truncated construct, residues 39 to 224) was expressed in E. coli as a GST fusion protein; Following purification the GST portion was removed by thrombin cleavage; fused on or other part: An N-terminal GST tag was used for expression and removed by thrombin cleavage before the assay
As to the kind of experiment: JNK3 Kinase Assay. To be noted: Table 9; read-out: JNK3 IC50. The assay is classed as biochemical. The protocol:
JNK3 Kinase Assay Jnk-3alpha-2 (as a truncated construct, residues 39 to 224) was expressed in E. coli as a GST fusion protein. Following purification the GST portion was removed by thrombin cleavage. The enzyme was stored at −80° C. Substrate c-Jun was expressed as a GST fusion protein including a signal peptide (biotinylation site) in E. coli. Following purification the substrate was biotinylated on a specific lysine in the signal peptide using biotin ligase. Prior to assay Jnk-3 was pre-activated by incubation with MgATP. The enzyme (10 nM) was screened in 40 mM HEPES (pH 7.4), 150 mM NaCl, 20 mM glycerophosphate, 1 mM DTT, 0.2 mM vanadate, 200 nM biotin-c-Jun, 5 mM MgCl2 and 10 uM ATP. Inhibitors were added over a conc range of from 0 to 10 uM in DMSO (fc 3%). The reaction was stopped by the addition of 25 mM EDTA. Phospho-c-Jun was detected using homogeneous time resolved fluorescence (HTRF) with a Eu-labelled antiphosphoserine (Serine 73) and streptavidin APC.

The target of a further assay is T2, p38 kinase (Homo sapiens, UniProt Q16539).
T2 construct: GST (N); made in house; host or cells: E. coli
As to the kind of experiment: p38 Kinase Assay. It is filed as biochemical. The conditions noted are these: Table 9; p38 assays using Assay II; read-out: p38 IC50. The protocol:
The peptide substrate used in the p38 assay was biotin-IPTSPITTTYFFFRRR-amide. The p38 and MEK6 proteins were purified to homogeneity from E. coli expression systems. The fusion proteins were tagged at the N-terminus with Glutathione-S-Transferase (GST). The maximum activation was achieved by incubating 20 uL of a reaction mixture of 30 nM MEK6 protein and 120 nM p38 protein in the presence of 1.5 uM peptide and 10 mM Mg (CH3CO2)2 in 100 mM HEPES7 pH 7.5, added to 15 uL of a mixture of 1.5 uM ATP with 0.08 uCi [g-^33P]ATP, with or without 15 uL of inhibitor in 6% DMSO. The controls were reactions in the presence (negative controls) or absence (positive controls) of 50 mM EDTA. Reactions were allowed to proceed for 60 min at room temperature and quenched with addition of 50 uL of 250 mM EDTA and mixed with 150 uL of Streptavidin SPA beads (Amersham) to 0.5 mg/reaction. The Dynatech Microfluor white U-bottom plates were sealed and the beads were allowed to settle overnight. The plates were counted in a Packard TopCount for 60 seconds. IC50 values were obtained by fitting raw data to % I=100*(1−(I−C2)/(C1−C2)), where I was […], C1 was positive control, and C2 was negative control.

T2 sequence (Q16539 whole entry): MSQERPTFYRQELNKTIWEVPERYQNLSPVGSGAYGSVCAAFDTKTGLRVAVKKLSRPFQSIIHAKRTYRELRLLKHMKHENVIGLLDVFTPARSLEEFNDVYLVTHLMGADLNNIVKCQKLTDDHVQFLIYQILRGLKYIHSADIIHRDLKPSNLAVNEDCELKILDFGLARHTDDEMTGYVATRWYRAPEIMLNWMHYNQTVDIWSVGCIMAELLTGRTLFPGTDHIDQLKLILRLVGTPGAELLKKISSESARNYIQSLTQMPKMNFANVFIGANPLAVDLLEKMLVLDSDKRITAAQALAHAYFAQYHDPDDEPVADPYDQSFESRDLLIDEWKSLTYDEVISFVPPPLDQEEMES
T1 sequence (P53779 39-402 limits assumed): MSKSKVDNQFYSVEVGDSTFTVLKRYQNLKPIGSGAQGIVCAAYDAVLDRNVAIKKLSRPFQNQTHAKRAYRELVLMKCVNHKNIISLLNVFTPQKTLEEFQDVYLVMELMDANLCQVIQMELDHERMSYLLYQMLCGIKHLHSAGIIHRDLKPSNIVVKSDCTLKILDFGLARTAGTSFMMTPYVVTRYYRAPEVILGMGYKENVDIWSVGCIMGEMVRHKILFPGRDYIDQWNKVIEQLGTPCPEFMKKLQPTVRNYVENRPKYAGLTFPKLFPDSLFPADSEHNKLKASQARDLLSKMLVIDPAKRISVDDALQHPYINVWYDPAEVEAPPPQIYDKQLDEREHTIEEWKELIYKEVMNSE

Regarding `Fc1ccc(-c2nn3cc(C(F)(F)F)ccc3c2-c2ccnc(NCCCN3CCCCC3)n2)cc1Cl` [Example 113, N-{4-[2-(3-chloro-4-fluorophenyl)-6-(trifluoromethyl)pyrazolo[1,5-a]pyridin-3-yl]pyrimidin-2-yl}-N-(3-piperidin-1-ylpropyl)amine], the pIC50 (in assay [1]; at p38 kinase) was 6.00 to 7.00 in each case.
Turning to `FC(F)(F)c1ccc2c(-c3ccnc(NCCCCN4CCCC4)n3)c(-c3cccc(Cl)c3)nn2c1` [Example 106, N-{4-[2-(3-chlorophenyl)-6-(trifluoromethyl)pyrazolo[1,5-a]pyridin-3-yl]pyrimidin-2-yl}-N-(4-pyrrolidin-1-ylbutyl)amine], the pIC50 was 6.00 to 7.00 in assay [1] and 7.00 to 8.00 at p38 kinase.
The matching figures for `FC(F)(F)c1ccc2c(-c3ccnc(NCCN4CCCCCC4)n3)c(-c3cccc(Cl)c3)nn2c1` [Example 117, N-(2-azepan-1-ylethyl)-N-{4-[2-(3-chlorophenyl)-6-(trifluoromethyl)pyrazolo[1,5-a]pyridin-3-yl]pyrimidin-2-yl}amine]: 5.00 to 6.00 and 6.00 to 7.00.
The matching figures for `CCCN1CCN(CCNc2nccc(-c3c(-c4cccc(Cl)c4)nn4cc(C(F)(F)F)ccc34)n2)CC1` [Example 129, N-{4-[2-(3-chlorophenyl)-6-(trifluoromethyl)pyrazolo[1,5-a]pyridin-3-yl]pyrimidin-2-yl}-N-[2-(4-propylpiperazin-1-yl)ethyl]amine]: 6.00 to 7.00 and 7.00 to 8.00.
For `Fc1ccc(-c2nn3cc(C(F)(F)F)ccc3c2-c2ccnc(NCCN3CCOCC3)n2)cc1Cl` [Example 120, N-{4-[2-(3-chloro-4-fluorophenyl)-6-(trifluoromethyl)pyrazolo[1,5-a]pyridin-3-yl]pyrimidin-2-yl}-N-(2-morpholin-4-ylethyl)amine], in that order: 6.00 to 7.00 and 7.00 to 8.00.
For the compound `CCCN1CCN(CCNc2nccc(-c3c(-c4ccc(F)c(Cl)c4)nn4cc(C(F)(F)F)ccc34)n2)CC1` [Example 128, N-{4-[2-(3-chloro-4-fluorophenyl)-6-(trifluoromethyl)pyrazolo-[1,5-a]pyridin-3-yl]pyrimidin-2-yl}-N-[2-(4-propylpiperazin-1-yl)ethyl]amine], the pIC50 in assay [1] is 6.00 to 7.00; at p38 kinase it was 7.00 to 8.00.
For `CN1CCN(CCCNc2nccc(-c3c(-c4ccc(F)c(Cl)c4)nn4cc(C(F)(F)F)ccc34)n2)CC1` [Example 125, N-{4-[2-(3-chloro-4-fluorophenyl)-6-(trifluoromethyl)pyrazolo-[1,5-a]pyridin-3-yl]pyrimidin-2-yl}-N-[3-(4-methylpiperazin-1-yl)propyl]amine], in that order: 6.00 to 7.00 and 7.00 to 8.00.
The matching figures for `Fc1ccc(-c2nn3cc(C(F)(F)F)ccc3c2-c2ccnc(NCCCN3CCOCC3)n2)cc1Cl` [Example 122, N-{4-[2-(3-chloro-4-fluorophenyl)-6-(trifluoromethyl)pyrazolo[1,5-a]pyridin-3-yl]pyrimidin-2-yl}-N-(3-morpholin-4-ylpropyl)amine]: 6.00 to 7.00 and 6.00 to 7.00.
For `CCN(CC)CCCCNc1nccc(-c2c(-c3cccc(Cl)c3)nn3cc(C(F)(F)F)ccc23)n1` [Example 94, N-{4-[2-(3-chlorophenyl)-6-(trifluoromethyl)pyrazolo[1,5-a]pyridin-3-yl]pyrimidin-2-yl}-N-[4-(diethylamino)butyl]amine], in that order: 6.00 to 7.00 and 7.00 to 8.00.
Regarding `CN(C)CCCNc1nccc(-c2c(-c3cccc(Cl)c3)nn3cc(C(F)(F)F)ccc23)n1` [Example 90, N-{4-[2-(3-chlorophenyl)-6-(trifluoromethyl)pyrazolo[1,5-a]pyridin-3-yl]pyrimidin-2-yl}-N-[3-(dimethylamino)propyl]amine], the pIC50 in assay [1] is 5.00 to 6.00; at p38 kinase, 7.00 to 8.00.

Source of the values: US7166597B2, “Fused pyrazole derivatives being protein kinase inhibitors” (Glaxo Group Limited, priority 2000, dated 2007).
